Holding throughout (experiment): MIC/MLC broth dilution assay against fish pathogens
Holding throughout (type): cell-based
(In general: In broth dilution the organism is exposed to a series of concentrations in liquid medium.)

One experiment has as its system Streptococcus agalactiae. The conditions noted are these: (TSAY/TSBY)/28° C./48 h; for MIC: Streptococcus agalactiae, read-out: Minimum Inhibitory Concentration.
For experiment [1], the system named is Renibacterium salmoninarum. Particulars: KDM-2/15° C./14 days, read-out: Minimum Inhibitory Concentration.
A further experiment has as its system Flavobacterium columnare. Particulars: TYES/20° C./2 days, read-out: Minimum Inhibitory Concentration.
Another experiment deals with Piscirickettsia salmonis. The conditions noted are these: L15/15° C./21 days, read-out: Minimum Inhibitory Concentration.
For a further experiment, the system named is Aeromonas salmonicida. The conditions noted are these: (TSA/TSB)/20° C./24 h, read-out: Minimum Inhibitory Concentration.
A further experiment concerns Streptococcus iniae. Particulars: (TSAY/TSBY)/28° C./48 h; for MIC: Streptococcus iniae, read-out: Minimum Inhibitory Concentration.
In another experiment the test system is Vibrio parahaemolyticus. Particulars: (TSA2/TSB2)/37° C./24 h, read-out: Minimum Inhibitory Concentration.
A further experiment concerns Tenacibaculum maritimum. Particulars: (MA/MB)/15° C./8 days.

Values after ≈ are worked out from the molar mass of the structure shown.

For `CCCCCCCc1cc(O)c(CCCCCC)c(O)c1` (single isomer, unassigned) [Peak 3], the “Minimum Lethal Concentration” value in the experiment with Streptococcus agalactiae was determined as 50 µg/mL; in the experiment with Streptococcus iniae it was 25 µg/mL. Besides, the MIC came to 6.25 µg/mL (≈ 21.4 µM) in the experiment on Streptococcus agalactiae; 50 µg/mL (≈ 171 µM) in experiment [1]; 0.39 µg/mL (≈ 1.33 µM) in the experiment with Flavobacterium columnare; 12.5 µg/mL (≈ 42.7 µM) in the experiment with Piscirickettsia salmonis; 100 µg/mL (≈ 342 µM) with Aeromonas salmonicida; 0.39 µg/mL (≈ 1.33 µM) with Streptococcus iniae. The MIC in the experiment on Vibrio parahaemolyticus came to 1.56 µg/mL (≈ 5.33 µM).
In the case of `CCCCCCc1c(O)cc(CCCCC)cc1O` (single isomer, unassigned) [Peak 2], the MIC with Streptococcus agalactiae was determined as 6.25 µg/mL (≈ 23.6 µM); in the experiment with Tenacibaculum maritimum (Tenacibaculum maritimum, read-out: Minimum Inhibitory Concentration), 3.13 µg/mL (≈ 11.8 µM); in experiment [1], 50 µg/mL (≈ 189 µM); in the experiment on Flavobacterium columnare, 0.5 µg/mL (≈ 1.89 µM); in the experiment on Piscirickettsia salmonis it was 12.5 µg/mL (≈ 47.3 µM); with Streptococcus iniae, 0.39 µg/mL (≈ 1.47 µM). Besides, the “Minimum Lethal Concentration” value in the experiment on Tenacibaculum maritimum turned out to be 200 µg/mL.
